Data published in ChEMBL document CHEMBL2074426 (Mol Pharmacol, 2001).

Experiments:
Type in all cases: functional, cell-based
[1] = molecular target: ATP-dependent translocase ABCB1 (Homo sapiens, UniProt P08183); assay: TP_TRANSPORTER: transepithelial transport (basal to apical) in MDR1-expressing LLC-PK1 cells; settings: pig
[2] = molecular target: ATP-dependent translocase ABCB1 (Mus musculus, UniProt P06795); assay: TP_TRANSPORTER: transepithelial transport (basal to apical) in mdr1b-expressing LLC-PK1 cell
[3] = molecular target: ATP-dependent translocase ABCB1 (Mus musculus, UniProt P21447); assay: TP_TRANSPORTER: transepithelial transport (basal to apical) in mdr1a-expressing LLC-PK1 cell; settings: pig
ATP-dependent translocase ABCB1 (Mus musculus, UniProt P21447), sequence (P21447 whole entry): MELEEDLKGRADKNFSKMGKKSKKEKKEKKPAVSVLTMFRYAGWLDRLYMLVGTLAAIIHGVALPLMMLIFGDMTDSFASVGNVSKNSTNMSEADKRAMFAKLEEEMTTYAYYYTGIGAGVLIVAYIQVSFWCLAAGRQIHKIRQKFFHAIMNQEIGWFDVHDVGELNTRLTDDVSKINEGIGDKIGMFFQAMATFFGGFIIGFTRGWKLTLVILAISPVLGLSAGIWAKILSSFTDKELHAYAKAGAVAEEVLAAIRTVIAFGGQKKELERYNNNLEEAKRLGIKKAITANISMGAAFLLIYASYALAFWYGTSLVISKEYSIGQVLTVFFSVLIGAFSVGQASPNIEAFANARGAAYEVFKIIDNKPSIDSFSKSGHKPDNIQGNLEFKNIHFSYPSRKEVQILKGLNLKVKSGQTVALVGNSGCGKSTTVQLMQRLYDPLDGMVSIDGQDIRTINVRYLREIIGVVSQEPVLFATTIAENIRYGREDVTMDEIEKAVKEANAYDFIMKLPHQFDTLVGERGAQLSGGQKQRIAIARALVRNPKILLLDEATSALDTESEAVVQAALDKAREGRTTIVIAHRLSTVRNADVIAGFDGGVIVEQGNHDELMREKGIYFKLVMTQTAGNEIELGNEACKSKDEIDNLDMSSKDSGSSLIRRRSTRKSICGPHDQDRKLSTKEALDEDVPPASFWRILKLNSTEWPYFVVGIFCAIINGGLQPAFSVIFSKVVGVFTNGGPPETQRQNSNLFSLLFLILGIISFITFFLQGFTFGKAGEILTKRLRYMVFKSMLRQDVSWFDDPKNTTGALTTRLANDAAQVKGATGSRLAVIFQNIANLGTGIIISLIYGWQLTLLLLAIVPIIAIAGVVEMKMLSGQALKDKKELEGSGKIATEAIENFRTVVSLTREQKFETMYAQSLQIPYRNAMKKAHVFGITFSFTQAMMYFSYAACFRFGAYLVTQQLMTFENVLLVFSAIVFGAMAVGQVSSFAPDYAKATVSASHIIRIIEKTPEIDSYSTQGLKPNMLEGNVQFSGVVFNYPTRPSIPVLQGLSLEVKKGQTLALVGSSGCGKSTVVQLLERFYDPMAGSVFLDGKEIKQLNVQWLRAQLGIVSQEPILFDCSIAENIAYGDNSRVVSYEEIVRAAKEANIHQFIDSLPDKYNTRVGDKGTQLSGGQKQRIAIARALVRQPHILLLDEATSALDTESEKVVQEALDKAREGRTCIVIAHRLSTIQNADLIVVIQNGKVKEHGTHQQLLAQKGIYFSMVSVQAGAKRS

ATP-dependent translocase ABCB1 (Homo sapiens, UniProt P08183), sequence (P08183 whole entry): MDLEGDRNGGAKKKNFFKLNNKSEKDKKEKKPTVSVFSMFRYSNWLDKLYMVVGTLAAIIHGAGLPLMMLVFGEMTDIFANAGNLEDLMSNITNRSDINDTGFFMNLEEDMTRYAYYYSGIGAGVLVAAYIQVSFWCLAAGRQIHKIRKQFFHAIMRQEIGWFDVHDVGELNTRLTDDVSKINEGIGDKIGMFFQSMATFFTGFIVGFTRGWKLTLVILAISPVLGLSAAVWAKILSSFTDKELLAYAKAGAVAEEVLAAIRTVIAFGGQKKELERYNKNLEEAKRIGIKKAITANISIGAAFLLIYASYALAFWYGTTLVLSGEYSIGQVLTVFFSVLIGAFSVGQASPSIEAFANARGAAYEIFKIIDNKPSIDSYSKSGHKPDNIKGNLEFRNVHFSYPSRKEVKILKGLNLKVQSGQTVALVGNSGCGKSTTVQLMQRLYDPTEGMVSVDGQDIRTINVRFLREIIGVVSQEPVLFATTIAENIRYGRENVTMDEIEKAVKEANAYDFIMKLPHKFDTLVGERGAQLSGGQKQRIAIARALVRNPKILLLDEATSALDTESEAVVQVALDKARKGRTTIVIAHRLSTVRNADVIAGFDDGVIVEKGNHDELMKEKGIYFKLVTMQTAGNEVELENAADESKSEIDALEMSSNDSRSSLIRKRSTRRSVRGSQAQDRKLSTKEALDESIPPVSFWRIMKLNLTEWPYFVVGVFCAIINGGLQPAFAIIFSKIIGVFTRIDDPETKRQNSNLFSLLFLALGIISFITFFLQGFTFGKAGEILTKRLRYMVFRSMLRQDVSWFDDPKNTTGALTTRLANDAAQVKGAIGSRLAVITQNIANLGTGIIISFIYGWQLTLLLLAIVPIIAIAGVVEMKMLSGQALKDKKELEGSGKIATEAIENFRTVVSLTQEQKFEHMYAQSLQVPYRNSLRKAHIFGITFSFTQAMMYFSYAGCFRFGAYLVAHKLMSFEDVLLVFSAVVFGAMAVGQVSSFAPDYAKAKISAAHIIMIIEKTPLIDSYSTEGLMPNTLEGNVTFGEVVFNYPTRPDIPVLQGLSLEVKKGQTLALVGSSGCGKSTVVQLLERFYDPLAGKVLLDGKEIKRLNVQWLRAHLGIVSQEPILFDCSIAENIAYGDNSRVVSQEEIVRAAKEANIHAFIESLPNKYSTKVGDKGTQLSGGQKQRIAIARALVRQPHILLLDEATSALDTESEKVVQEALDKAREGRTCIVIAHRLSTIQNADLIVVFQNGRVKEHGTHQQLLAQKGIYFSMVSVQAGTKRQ
ATP-dependent translocase ABCB1 (Mus musculus, UniProt P06795), sequence (P06795 whole entry): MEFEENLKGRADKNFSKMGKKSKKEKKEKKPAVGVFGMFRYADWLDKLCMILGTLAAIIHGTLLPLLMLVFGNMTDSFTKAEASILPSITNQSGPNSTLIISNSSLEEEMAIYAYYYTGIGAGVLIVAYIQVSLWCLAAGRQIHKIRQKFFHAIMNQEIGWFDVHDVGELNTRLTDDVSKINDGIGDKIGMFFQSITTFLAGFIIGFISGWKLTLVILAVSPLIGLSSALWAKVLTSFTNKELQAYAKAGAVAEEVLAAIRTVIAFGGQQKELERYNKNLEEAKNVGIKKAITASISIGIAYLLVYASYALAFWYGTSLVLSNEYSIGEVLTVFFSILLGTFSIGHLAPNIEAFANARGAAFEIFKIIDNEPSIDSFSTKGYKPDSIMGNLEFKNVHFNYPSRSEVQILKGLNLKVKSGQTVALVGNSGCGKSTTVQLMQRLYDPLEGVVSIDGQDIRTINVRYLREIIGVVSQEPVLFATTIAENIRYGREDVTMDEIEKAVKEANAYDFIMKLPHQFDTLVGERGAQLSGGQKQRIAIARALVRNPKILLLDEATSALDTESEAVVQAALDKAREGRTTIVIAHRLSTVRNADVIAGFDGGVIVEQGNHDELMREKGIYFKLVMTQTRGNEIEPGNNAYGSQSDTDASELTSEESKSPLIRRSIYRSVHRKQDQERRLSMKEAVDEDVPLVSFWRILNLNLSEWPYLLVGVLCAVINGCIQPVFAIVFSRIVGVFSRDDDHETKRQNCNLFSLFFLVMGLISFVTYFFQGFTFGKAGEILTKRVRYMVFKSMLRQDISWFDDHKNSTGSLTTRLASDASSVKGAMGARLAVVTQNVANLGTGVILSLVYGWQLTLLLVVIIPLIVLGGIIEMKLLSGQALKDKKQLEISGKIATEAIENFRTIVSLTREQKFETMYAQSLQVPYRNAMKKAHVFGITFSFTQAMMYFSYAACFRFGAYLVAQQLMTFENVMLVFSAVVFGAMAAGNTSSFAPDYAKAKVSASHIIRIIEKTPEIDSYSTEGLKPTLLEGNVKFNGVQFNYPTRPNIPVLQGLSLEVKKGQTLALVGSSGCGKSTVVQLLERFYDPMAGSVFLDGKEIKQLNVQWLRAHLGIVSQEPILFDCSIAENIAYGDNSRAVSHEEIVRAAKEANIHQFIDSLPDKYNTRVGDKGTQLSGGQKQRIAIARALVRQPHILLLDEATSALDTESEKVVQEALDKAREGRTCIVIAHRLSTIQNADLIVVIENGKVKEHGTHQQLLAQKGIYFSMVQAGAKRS

Activity [1]: substrate [+] | Activity [2]: substrate [+] | Activity [3]: substrate [+]
SMILES: CC(C)(C)NC(=O)[C@@H]1C[C@@H]2CCCC[C@@H]2CN1C[C@@H](O)[C@H](Cc1ccccc1)NC(=O)[C@H](CC(N)=O)NC(=O)c1ccc2ccccc2n1
